From ChEMBL document CHEMBL1133022, “Predicting blood-brain barrier permeation from three-dimensional molecular structure” (J Med Chem, 2000)

Species on record: Mus musculus
Assay: BBB penetration classification

Row | Structure (SMILES) | Permeability | BBB Impermeable (in vivo)
1 | C[C@]12CC[C@@H]3c4ccc(O)cc4CC[C@H]3[C@@H]1CC[C@@H]2O [ESTRADIOL] | Permeable | 
2 | CC(C)(C)c1ccc([C@@H](O)CCCN2CCC(C(O)(c3ccccc3)c3ccccc3)CC2)cc1 | Impermeable | 
3 | CN(C)CCCN1c2ccccc2Sc2ccc(Cl)cc21 [CHLORPROMAZINE] | Permeable | 
4 | C[C@H](CN1c2ccccc2Sc2ccccc21)N(C)C | Permeable | 
5 | CCCC(C)C1(CC)C(=O)NC(=S)NC1=O (stereo unspecified) [THIOPENTAL] | Permeable | 
6 | Cn1c(=O)c2c(ncn2C)n(C)c1=O [CAFFEINE] | Permeable | 
7 | O=C(Cc1ccc(Cl)c(Cl)c1)N1CCCC[C@H]1CN1CCCC1 | Permeable | 
8 | CCC(NC(=O)c1c(C)c(-c2ccccc2)nc2ccccc12)c1ccccc1 (stereo unspecified) | Permeable | 
9 | OCCN1CCN(CCCN2c3ccccc3Sc3ccc(Cl)cc32)CC1 [PERPHENAZINE] | Permeable | 
10 | Clc1cccc(Cl)c1N=C1NCCN1 [CLONIDINE] | Permeable | 
11 | NCCc1ccc(O)c(O)c1 [DOPAMINE] | Impermeable | 
12 | O=C(Cc1ccc(Cl)c(Cl)c1)N1CCc2occc2[C@H]1CN1CC[C@H](O)C1 | Permeable | 
13 | CSc1ccc2c(c1)N(CCC1CCCCN1C)c1ccccc1S2 (stereo unspecified) [THIORIDAZINE] | Permeable | 
14 | O=C(Cc1ccc(Cl)c(Cl)c1)N1CCc2occc2[C@@H]1CN1CC[C@H](O)C1 (racemic) | Permeable | 
15 | O=c1[nH]c2ccccc2n1CCCN1CCC(n2c(=O)[nH]c3cc(Cl)ccc32)CC1 [DOMPERIDONE] | Impermeable | 
16 | CC(C)(C)c1ccc([C@H](O)CCCN2CCC(C(O)(c3ccccc3)c3ccccc3)CC2)cc1 [R-TERFENADINE] | Impermeable | 
17 | CNC(=C[N+](=O)[O-])NCCSCc1ccc(CN(C)C)o1 [RANITIDINE] | Impermeable | 
18 | CNCCCN1c2ccccc2CCc2ccccc21 [DESIPRAMINE] | Permeable | 
19 | O=C(Cc1ccc(Cl)c(Cl)c1)N1CCc2occc2[C@H]1CN1CC[C@@H](O)C1 (mixture of isomers) | Permeable | 
20 | CN/C(=N/CCSCc1nc[nH]c1C)NC#N [CIMETIDINE] | Impermeable | 
21 | N[C@@H](Cc1ccc(O)c(O)c1)C(=O)O [LEVODOPA] |  | Impermeable
22 | COc1ccc(CCN2CCC(Nc3nc4ccccc4n3Cc3ccc(F)cc3)CC2)cc1 [ASTEMIZOLE] | Impermeable | 
23 | CC(C)(C)c1ccc(C(=O)CCCN2CCC(OC(c3ccccc3)c3ccccc3)CC2)cc1 [EBASTINE] | Impermeable | 
24 | O=C1CC[C@@]2(O)[C@H]3Cc4ccc(O)c5c4[C@@]2(CCN3CC2CC2)[C@H]1O5 [NALTREXONE] | Permeable | 
25 | CCn1cc(C(=O)O)c(=O)c2cc(F)c(N3CCNCC3)cc21 [NORFLOXACIN] | Impermeable | 
26 | C[C@@H](CN1c2ccccc2Sc2ccccc21)N(C)C [(S)-PROMETHAZINE] | Permeable | 
